In publication PMC8619914, “Development of Novel Peptides for the Antimicrobial Combination Therapy against Carbapenem-Resistant Acinetobacter baumannii Infection” (Pharmaceutics, 2021):
Values after ≈ are worked out from the molar mass of the structure shown. Like-named read-outs stand apart in the source and are kept apart here. Where no end group is shown, it is not given here.

Key:
[1] = tested on: Gram-negative bacterial strains; test: organism not typed; settings: for MIC: read-out: GM (mean MIC of Gram-negative bacterial strains); for GM (mean MIC of Gram-negative bacterial strains): seven Gram-negative strains, 256 assumed for MIC > 128 and 1024 for MIC > 512 μg·mL^−1
Source text: (§1) The Gram-negative bacterial strain Escherichia coli (KCTC 1682) and Gram-positive bacterial strain Staphylococcus aureus (KCTC 1621) were purchased from the Korean Collection for Type Cultures (Jeongeup, Korea). Acinetobacter baumannii (KCCM 40203) were purchased from Korea Culture Center of Microorganisms (Seoul, Korea). Additionally, five carbapenem-resistant Acinetobacter baumanii C1–C5 (CRAB C1–C5), which have the OXA-23 gene with carbapenem-resistance were collected from the patients with CRAB bacteremia, who presented symptoms and signs of infection at Korea University Anam Hospital (Seoul, Korea) (IRB registration no. 2020AN0157). The minimum inhibitory concentrations (MIC) of the AMP and antibiotics against the various bacterial strains were assessed using the serial dilution method on Muller–Hinton (MH) media, as described previously. […] Absorbance at 600 nm was measured using a SpectraMAX microplate reader (Molecular Devices, San Jose, CA, USA).
Geometric means (GM) were calculated to compare the relative antimicrobial activities of the analogs against Gram-negative bacteria. […] Next, the antibacterial mechanisms of peptides were investigated.

CRAB C1 biofilm = test: Biofilm inhibition, crystal violet; format: cell-based, carbapenem-resistant Acinetobacter baumannii; settings: Acinetobacter baumannii, read-out: percentage of biofilm inhibition
Procedure: CRAB C1 cells (2 × 10^5 CFU·mL^−^1) were incubated with PapMA-3 and antibiotics in a tissue-culture well plate in MH medium containing 0.2% glucose for 16 h at 37 °C. The cells were stained with 0.1% (w/v) crystal violet in 0.25% (v/v) acetic acid for 1 h at room temperature; the dye complex was dissolved with ethanol. Absorbance at 595 nm was measured using SpectraMAX microplate reader (Molecular Devices) to quantify the biofilm formation.
Biofilms were quantified by staining with crystal violet. (A) Absorbance of crystal violet-stained biofilms with treatment of PapMA-3 and antibiotics at a concentration range of 32 to 512 μg·mL^−1, assessed at 595 nm. […] CRAB C1 without peptides or antibiotics served as the control (red). Statistical analysis was performed using two-way ANOVA with Dunnett’s comparison test. The values are expressed as the mean ± SEM of three independent experiments and are statistically significant at ** p < 0.01 and *** p < 0.001. ns, not significant.

CRAB C3 [2] = test: microbe, parasite or virus in culture; settings: 16 h; for MIC: Acinetobacter baumannii, read-out: Minimum Inhibitory Concentration, CRAB C3; for Minimum Inhibitory Concentration, CRAB C3: MH media, 2 × 10^5 CFU·mL^−1, 37 °C, absorbance 600 nm
Source text: as §1
(§2) Measurement of the minimum inhibitory concentrations (MIC) was conducted to determine the effect of the hydrophobicity of each antimicrobial peptide on its antimicrobial activity. MIC was defined as the minimum concentration that killed more than 99% of bacteria; it was measured against two standard Gram-negative bacteria (E. coli and A. baumanii), five clinically isolated CRAB (C1–C5), and one Gram-positive bacteria (S. aureus).

[3] = tested on: Staphylococcus aureus (KCTC 1621); test: microbe, parasite or virus in culture; settings: for MIC: Staphylococcus aureus, KCTC1621, 16 h, read-out: Minimum Inhibitory Concentration, S.aureus; for Minimum Inhibitory Concentration, S.aureus: KCTC 1621, 16 h
Source text: as §1, §2

CRAB C4 [4] = test: microbe, parasite or virus in culture; settings: 16 h; for MIC: Acinetobacter baumannii, read-out: Minimum Inhibitory Concentration, CRAB C4; for Minimum Inhibitory Concentration, CRAB C4: MH media, 2 × 10^5 CFU·mL^−1, 37 °C, absorbance 600 nm
Source text: as §1, §2

CRAB C1 [5] = test: microbe, parasite or virus in culture; settings: 16 h; for MIC: Acinetobacter baumannii; for Minimum Inhibitory Concentration, CRAB C1: MH media, 2 × 10^5 CFU·mL^−1, 37 °C, absorbance 600 nm
Source text: as §1, §2

[6] = tested on: Escherichia coli (KCTC 1682); test: microbe, parasite or virus in culture; settings: for MIC: Escherichia coli, KCTC1682, 16 h, read-out: Minimum Inhibitory Concentration, E. coli; for Minimum Inhibitory Concentration, E. coli: MH media, 2 × 10^5 CFU·mL^−1, 37 °C, 16 h, absorbance 600 nm, MIC kills more than 99% of bacteria
Source text: as §1, §2

CRAB C2 [7] = test: microbe, parasite or virus in culture; settings: 16 h; for MIC: Acinetobacter baumannii, read-out: Minimum Inhibitory Concentration, CRAB C2; for Minimum Inhibitory Concentration, CRAB C2: MH media, 2 × 10^5 CFU·mL^−1, 37 °C, absorbance 600 nm
Source text: as §1, §2

CRAB C5 [8] = test: microbe, parasite or virus in culture; settings: 16 h; for MIC: Acinetobacter baumannii, read-out: Minimum Inhibitory Concentration, CRAB C5; for Minimum Inhibitory Concentration, CRAB C5: MH media, 2 × 10^5 CFU·mL^−1, 37 °C, absorbance 600 nm
Source text: as §1, §2

[9] = tested on: Acinetobacter baumannii (KCCM 40203); test: microbe, parasite or virus in culture; settings: for MIC: Acinetobacter baumannii, KCCM40203, 16 h, read-out: Minimum Inhibitory Concentration, A. baumanii; for Minimum Inhibitory Concentration, A. baumanii: KCCM 40203, 16 h
Source text: as §1, §2

CRAB C3 [10] = test: microbe, parasite or virus in culture; settings: Acinetobacter baumannii, 16 h, read-out: MIC alone, CRAB C3
Procedure: (§3) The synergistic effects of AMPs and antibiotics were measured using checkerboard assays. Serial dilutions of PapMA-3 and antibiotics were performed from 1 to […] of the MIC. Samples were then cross-mixed and cultured in MH medium with 2 × 10^5 CFU·ml^−^1 bacteria. Results were recorded after 16 h of incubation at 37 °C. The fractional inhibitory concentration index (FICI) was calculated according to the European Committee on Antimicrobial Susceptibility (EUCAST).
(§4) The ability of PapMA-3 to facilitate these antibiotics in penetrating the bacterial membranes of Gram-negative bacteria was investigated.

CRAB C4 [11] = test: microbe, parasite or virus in culture; settings: Acinetobacter baumannii, 16 h, read-out: MIC alone, CRAB C4
Procedure: as §3, §4

CRAB C1 [12] = test: microbe, parasite or virus in culture; settings: Acinetobacter baumannii, 16 h, read-out: MIC alone, CRAB C1
Procedure: as §3, §4

CRAB C2 [13] = test: microbe, parasite or virus in culture; settings: Acinetobacter baumannii, 16 h, read-out: MIC alone, CRAB C2
Procedure: as §3, §4

CRAB C5 [14] = test: microbe, parasite or virus in culture; settings: Acinetobacter baumannii, 16 h, read-out: MIC alone, CRAB C5
Procedure: as §3, §4

[15] = 32 μg·mL^−1, CRAB C1, compared to the control
[16] = read-out: Minimum Inhibitory Concentration, CRAB C1

Compound	MIC [1] [µg/mL]	MIC (CRAB C3 [2]) [µg/mL]	MIC [3] [µg/mL]	MIC (CRAB C4 [4]) [µg/mL]	MIC (CRAB C1 [5]; [16]) [µg/mL]	MIC [6] [µg/mL]	MIC (CRAB C2 [7]) [µg/mL]	MIC (CRAB C5 [8]) [µg/mL]	MIC [9] [µg/mL]	MIC (CRAB C3 [10]) [µg/mL]	MIC (CRAB C4 [11]) [µg/mL]	MIC (CRAB C1 [12]) [µg/mL]	MIC (CRAB C2 [13]) [µg/mL]	MIC (CRAB C5 [14]) [µg/mL]	GM (mean MIC of Gram-negative bacterial strains) [1] [µg/mL]	Minimum Inhibitory Concentration, CRAB C3 (CRAB C3 [2]) [µg/mL]	Minimum Inhibitory Concentration, S.aureus [3] [µg/mL]	Minimum Inhibitory Concentration, CRAB C4 (CRAB C4 [4]) [µg/mL]	Minimum Inhibitory Concentration, CRAB C1 (CRAB C1 [5]) [µg/mL]	Minimum Inhibitory Concentration, E. coli [6] [µg/mL]	other results
C[C@@H](O)[C@H]1C(=O)N2C(C(=O)O)=C(SCCN=CN)C[C@H]12 [Imipenem]	46	64 (≈ 214 µM)	1 (≈ 3.34 µM)	64 (≈ 214 µM)	64 (≈ 214 µM)	0.25 (≈ 0.835 µM)	64 (≈ 214 µM)	64 (≈ 214 µM)	0.25 (≈ 0.835 µM)	64	64	64	64	64	–	–	–	–	–	–	inhibition at 32 µg/mL (CRAB C1 biofilm; [15]): 88.9%; MIC (CRAB C1 [5]; read-out: Minimum Inhibitory Concentration, CRAB C1, MH Media): 64 µg/mL (≈ 214 µM)
CC(=O)NC[C@H]1CN(c2ccc(N3CCOCC3)c(F)c2)C(=O)O1 [Linezolid]	329	256 (≈ 759 µM)	1 (≈ 2.96 µM)	512 (≈ 1520 µM)	256 (≈ 759 µM)	256 (≈ 759 µM)	256 (≈ 759 µM)	512 (≈ 1520 µM)	256 (≈ 759 µM)	256	512	256	256	512	–	–	–	–	–	–	inhibition at 32 µg/mL (CRAB C1 biofilm; [15]): 4.4%
C[C@@H](O)[C@H]1C(=O)N2C(C(=O)O)=C(S[C@@H]3CN[C@H](C(=O)N(C)C)C3)[C@H](C)[C@H]12 [Meropenem]	64	64 (≈ 167 µM)	1 (≈ 2.61 µM)	128 (≈ 334 µM)	128 (≈ 334 µM)	0.25 (≈ 0.652 µM)	64 (≈ 167 µM)	64 (≈ 167 µM)	0.25 (≈ 0.652 µM)	64	128	128	64	64	–	–	–	–	–	–	inhibition at 32 µg/mL (CRAB C1 biofilm; [15]): 79.2%
CO[C@H]1/C=C/O[C@@]2(C)Oc3c(C)c(O)c4c(O)c(c(/C=N/N5CCN(C)CC5)c(O)c4c3C2=O)NC(=O)/C(C)=C\C=C\[C@H](C)[C@H](O)[C@@H](C)[C@@H](O)[C@@H](C)[C@H](OC(C)=O)[C@@H]1C [Rifampin]	101	128 (≈ 156 µM)	1 (≈ 1.22 µM)	128 (≈ 156 µM)	128 (≈ 156 µM)	2 (≈ 2.43 µM)	64 (≈ 77.8 µM)	256 (≈ 311 µM)	4 (≈ 4.86 µM)	128	128	128	64	256	–	–	–	–	–	–	inhibition at 32 µg/mL (CRAB C1 biofilm; [15]): 77.5%
CN[C@H](CC(C)C)C(=O)N[C@H]1C(=O)N[C@@H](CC(N)=O)C(=O)N[C@H]2C(=O)N[C@H]3C(=O)N[C@H](C(=O)N[C@H](C(=O)O)c4cc(O)cc(O)c4-c4cc3ccc4O)[C@H](O)c3ccc(c(Cl)c3)Oc3cc2cc(c3O[C@@H]2O[C@H](CO)[C@@H](O)[C@H](O)[C@H]2O[C@H]2C[C@](C)(N)[C@H](O)[C@H](C)O2)Oc2ccc(cc2Cl)[C@H]1O [Vancomycin]	274	256 (≈ 177 µM)	0.5 (≈ 0.345 µM)	512 (≈ 353 µM)	256 (≈ 177 µM)	128 (≈ 88.3 µM)	256 (≈ 177 µM)	256 (≈ 177 µM)	256 (≈ 177 µM)	256	512	256	256	256	–	–	–	–	–	–	inhibition at 32 µg/mL (CRAB C1 biofilm): 77.2%
RWKIFKKIPKFLHSAKKA-NH2 [PapMA-2]	–	–	–	–	–	–	–	–	–	–	–	–	–	–	146	64	>128	>128	128	64	Minimum Inhibitory Concentration, CRAB C2 (CRAB C2 [7]): >128 µg/mL; Minimum Inhibitory Concentration, CRAB C5 (CRAB C5 [8]): 128 µg/mL; Minimum Inhibitory Concentration, A. baumanii [9]: 128 µg/mL
RWKIFKKIPKFLHSAKKF-NH2 [PapMA]	–	–	–	–	–	–	–	–	–	–	–	–	–	–	34	16	64	64	32	32	Minimum Inhibitory Concentration, CRAB C2 (CRAB C2 [7]): 32 µg/mL; Minimum Inhibitory Concentration, CRAB C5 (CRAB C5 [8]): 32 µg/mL; Minimum Inhibitory Concentration, A. baumanii [9]: 32 µg/mL
RWKIFKKIPKFLHSFKKF-NH2 [PapMA-4]	–	–	–	–	–	–	–	–	–	–	–	–	–	–	10	8	32	16	8	16	Minimum Inhibitory Concentration, CRAB C2 (CRAB C2 [7]): 8 µg/mL; Minimum Inhibitory Concentration, CRAB C5 (CRAB C5 [8]): 8 µg/mL; Minimum Inhibitory Concentration, A. baumanii [9]: 8 µg/mL
RWKIFKKIPKFLHSWKKF-NH2 [PapMA-5]	–	–	–	–	–	–	–	–	–	–	–	–	–	–	18	16	32	32	16	16	Minimum Inhibitory Concentration, CRAB C2 (CRAB C2 [7]): 16 µg/mL; Minimum Inhibitory Concentration, CRAB C5 (CRAB C5 [8]): 16 µg/mL; Minimum Inhibitory Concentration, A. baumanii [9]: 16 µg/mL
RWKIFKKIPKFLHSWKKW-NH2 [PapMA-6]	–	–	–	–	–	–	–	–	–	–	–	–	–	–	11	8	32	16	8	16	Minimum Inhibitory Concentration, CRAB C2 (CRAB C2 [7]): 8 µg/mL; Minimum Inhibitory Concentration, CRAB C5 (CRAB C5 [8]): 16 µg/mL; Minimum Inhibitory Concentration, A. baumanii [9]: 8 µg/mL
